# Experimental data from patent publication US9233092B2, “Compositions and methods for inhibiting gastric acid secretion using derivatives of small dicarboxylic acids in combination with PPI” (Vecta, Ltd., priority 2006, dated 2016).
# Entries after “also recorded” stand apart in the source; their conditions may differ.
# Legend:
# gastric acid output = conditions: humans; Teyssen et al., J. Clin Invest. 1999; cited from earlier work
# gastric acid secretion [1] = test: Stimulation of gastric acid secretion after oral administration, pylorus ligated 60 min after dosing, acid output by NaOH titration; format: in vivo; conditions: rats, per os, SA 14.88 mg/kg, mS 16.65 mg/kg, dmS 17.65 mg/kg, gastric juice collected 30 min later
# Procedure: Rats were administered (per os) with succinic acid (SA, 14.88 mg/kg), monomethylester of succinic acid (mS, 16.65 mg/kg) or dimethyl ester of succinic acid (dmS, 17.65 mg/kg) using gavage. 60 minutes later the rats were anesthetized with ketamine/domitor and the pylorus was ligated. Following additional 30 min, gastric juice was collected from the gastric lumen. Acid output was determined by titration with NaOH. Total acid output expressed in mEq HCl was calculated by multiplying the sample volume by the acid concentration. Results are expressed as means±SEM of 8 animals from each experimental group.
# gastric acid secretion [2] = test: Conscious pylorus-ligated rats: effect of succinates on the activity of pantoprazole on gastric acid secretion; format: in vivo; conditions: oral gavage, succinate (SA 14.88 mg/kg or dmS 17.65 mg/kg) given 30 min prior to pantoprazole, FIG. 2
# Procedure: To further study the delayed or sustained enhancement effect of dimethyl ester of succinic acid on the activity of pantoprazole, an experimental model of conscious pylorus-ligated rats was used. This experimental model permits the analysis of the effect of drugs on gastric acid secretion in conscious animals and avoids the effect of anesthesia on gastric acid secretion. Pantoprazole alone ([…]) or in combination with succinic acid (SA, 14.88 mg/kg) or dimethyl ester of succinic acid (dmS, 17.65 mg/kg) were administered by oral gavage. The succinates were administered 30 min prior to the administration of pantoprazole in order to test the sustained or delayed effect of dimethyl ester of succinic acid compared to the non-derivatized succinic acid. 120 min post succinates administration, the animals were anesthetized using anesthetic gas machine for a short period (5 minutes) that is sufficient to perform the pylorus ligation procedure and to close the abdomen. The animals were then placed back into its cage for additional 110 min after which the animals were sacrificed. The ligature was placed around the esophagus, the stomach removed and gastric content was collected. Following centrifugation, the gastric output and the pH of the gastric juice samples was determined. Data is presented as mean±SEM of gastric output. The number of animals is 6-7 in each experimental group.
Structure (SMILES),stimulation of gastric acid output (gastric acid output),gastric acid output (total acid output) (gastric acid secretion [1]; FIG. 1),enhancement of the effect of pantoprazole (PPI) on gastric acid output (gastric acid secretion [2]),"gastric acid output (total acid output) (gastric acid secretion [1]; FIG. 1, listed as succinic acid dimethyl ester)"
O=C(O)/C=C\C(=O)O [Maleic acid],powerful stimulants of gastric acid output,–,–,–
"O=C(O)CCC(=O)O [SA, succinic acid, reference compound]",powerful stimulants of gastric acid output,did not show an effect,only dimethyl ester of succinic acid was capable of enhancing the effect of PPI,–
"COC(=O)CCC(=O)OC [dmS, dimethyl ester of succinic acid]",–,effective in enhancing gastric output,capable of enhancing the activity of pantoprazole on gastric acid secretion; also recorded: capable of enhancing the effect of PPI on gastric acid output,capable of enhancing gastric acid output even after 60 minutes from dosing
"COC(=O)CCC(=O)O [mS, monomethylester of succinic acid]",–,effective in enhancing gastric output,–,–
